Experimental data reported in patent US20240139349A1, “GADOLINIUM CHELATE, PREPARATION METHOD THEREFOR, AND APPLICATION THEREOF” (SUZHOU ZHECI PHARMACEUTICAL TECHNOLOGY CO., LTD., priority 2021, published 2024).
Where two headings read alike, the source gives them in different places.

Assay: In vitro MRI determination of longitudinal and transverse relaxation rates (r1, r2) of aqueous solutions
Format: physicochemical
Settings: for r1 (longitudinal relaxation rate) / r2 (transverse relaxation rate): aqueous solutions
[1] = H0 3.0 T clinical MRI system (Philips, Ingenia)
[2] = H0 7.0 T small animal MRI system

r2/r1 (H0 3.0 T) | r1 (longitudinal relaxation rate) [2] | Compound | r1 (longitudinal relaxation rate) [1] | r2 (transverse relaxation rate) [1] | r2/r1
1.07 ± 0.03 | 3770 M⁻¹ s⁻¹ | O=C([O-])CN1CCN(CC(=O)[O-])CCN([C@H](CO)[C@H](O)CO)CCN(CC(=O)[O-])CC1.[Gd+3] (racemic) [Gadavist, Gd-BT-DO3A] | 4600 ± 90 M⁻¹ s⁻¹ | 4900 ± 40 M⁻¹ s⁻¹ | 
1.03 ± 0.03 | 3680 M⁻¹ s⁻¹ | O=C([O-])CN(CCN(CC(=O)[O-])CC(=O)O)CCN(CC(=O)[O-])CC(=O)O.[Gd+3] [Magnevist, Gd-DTPA] | 4880 ± 120 M⁻¹ s⁻¹ | 5000 ± 100 M⁻¹ s⁻¹ | 

Compound | r2/r1 (H0 3.0 T) | r1 (longitudinal relaxation rate) [2] | r1 (longitudinal relaxation rate) [1] | r2 (transverse relaxation rate) [1] | r2/r1
O=[N+]([O-])[O-].O=[N+]([O-])[O-].O=[N+]([O-])[O-].[Gd+3] [Gd(NO3)3, gadolinium nitrate] |  | 8920 M⁻¹ s⁻¹ | 11390 ± 250 M⁻¹ s⁻¹ | 12040 ± 310 M⁻¹ s⁻¹ | 1.06 ± 0.006
Gd-BSA: gadolinium chelate of bovine serum albumin | 1.72±0.02 |  | 34880 ± 1060 M⁻¹ s⁻¹ | 59920 ± 1570 M⁻¹ s⁻¹ | 
